Patent US20060240049A1, “Anti-protozoal compositions comprising diclazuril” (priority 2003, published 2006)

Experiments:
[1] = in water; cited from earlier work
[2] = Stability of sodium diclazuril in aqueous solution; assay type: physicochemical; details: degrades into its keto-degradant

SMILES	aqueous solubility, saturation concentration [1]	stability in an aqueous solution [2]
N#CC(c1ccc(Cl)cc1)c1c(Cl)cc(-n2ncc(=O)[nH]c2=O)cc1Cl (centres unmarked) [diclazuril]	below 1 μg/L	
N#CC(c1ccc(Cl)cc1)c1c(Cl)cc(-n2ncc(=O)[n-]c2=O)cc1Cl.[Na+] (centres unmarked) [sodium diclazuril]		unstable
